Experimental data reported in BindingDB's records for doi:10.1016/j.ejmech.2015.12.016 (Shenyang Pharmaceutical University, 2016).
pIC50: −log10 of the molar value.

Experiments:
[1] = Inhibition of c-Met (unknown origin) by tumor cell growth inhibition assay
[2] = Inhibition of VEGFR-1 (unknown origin) by tumor cell growth inhibition assay
[3] = Inhibition of VEGFR-2 (unknown origin) by tumor cell growth inhibition assay
[4] = Inhibition of VEGFR-3 (unknown origin) by tumor cell growth inhibition assay

Which results are given for `Cn1ccnc1-c1cc2c(Oc3ccc(NC(=S)NC(=O)Cc4ccccc4)cc3F)ccnc2s1`?
pIC50 [1]: 9.00; pIC50 [2]: 8.52; pIC50 [3]: 8.52; pIC50 [4]: 8.40
